Columns and labels:
brown rice planthopper = assay: whole plant or invertebrate; format: in vivo; settings: Oryza sativa, 120 h, immersion treatment of rice seedlings, second- to third-instar nymphs, 5 days after release, 25° C.
[1] = test system: Haemaphysalis longicornis; assay: Test for Examining Effect on Haemaphysalis longicornis (Test Example 3); format: in vivo; settings: treated plastic vial, young mites, 24 hours after contact, 25° C., dark
Procedure: Test for Examining Effect on Haemaphysalis longicornis
A solution prepared so that the concentration of each Invention Compound therein was 100 ppm was used to treat a plastic vial. After the liquid chemical was air-dried, young mites were placed in the vial. This vial was allowed to stand under constant dark conditions at 25° C. and a relative humidity of 80-100%. At 24 hours after the contact with the chemical, the number of dead mites was recorded. The mortality (%) was determined using the following calculation formula. […] Mortality (%)=((number of dead ticks)/(number of all ticks))×100

SMILES | mortality at 200 ppm (brown rice planthopper) [%] | mortality at 100 ppm [1] [%]
CCNc1cnccc1C#Cc1ccc(C(C)(C)C)cc1 [Compound No. 112, 4-((4-tert-butylphenyl)ethynyl)-N-ethylpyridine-3-amine] | ≥ 90 | 
CC(C)(C)c1ccc(C#Cc2ccncc2Br)cc1 [Compound No. 10, 3-bromo-4-((4-(tert-butyl)phenyl)ethynyl)pyridine] | ≥ 90 | 
CCCNc1cnccc1C#Cc1ccc(C(C)(C)C)cc1 [Compound No. 32, 4-((4-(tert-butyl)phenyl)ethynyl)-N-propylpyridine-3-amine] | ≥ 90 | 
CSc1cnccc1C#Cc1ccc(C(C)(C)C)cc1 [Compound No. 26, 4-((4-(tert-butyl)phenyl)ethynyl)-3-(methylthio)pyridine] | ≥ 90 | 
C=CCc1cnccc1C#Cc1ccc(C(C)(C)C)cc1 [Compound No. 17, 3-allyl-4-((4-tert-butylphenyl)ethynyl)pyridine] | ≥ 90 | ≥ 90
CC(C)(C)c1ccc(C#Cc2ccncc2N)cc1 [Compound No. 30, 4-((4-(tert-butyl)phenyl)ethynyl)pyridine-3-amine] | ≥ 90 | 
COc1cnccc1C#Cc1ccc(C(C)(C)C)cc1 [Compound No. 21, 4-((4-(tert-butyl)phenyl)ethynyl)-3-methoxypyridine] | ≥ 90 | 
